{
  "source": "patent US20090047684A1",
  "about": "“Gene and protein expression profiles associated with the therapeutic efficacy of irinotecan” (Nuclea Biomarkers, LLC, priority 2006, published 2009)",
  "test_system": "tumor cells derived from patients who were responsive to treatment with irinotecan",
  "assay": "xenograft of patient-derived tumor cells in SCID mice treated with irinotecan",
  "type": "in vivo",
  "settings": "SCID mice with established xenograft tumors, injected with 200 mg/kg of irinotecan",
  "experimental": "Positive expression also was evaluated using a xenograft array. SCID mice were injected with tumor cells derived from patients who were responsive to treatment with irinotecan, and the tumors were allowed to grow in the mice. Once the tumors were established, the mice were injected with 200 mg/kg of irinotecan, and the mice were monitored to observe responsiveness to the drug. […] Prior to treatment with the drug, samples of the tumors were extracted from the mice and used to make a TMA.",
  "note": "Counter-ions that a name gives are not always drawn.",
  "data": [
    {"molecule": "CCc1c2c(nc3ccc(OC(=O)N4CCC(N5CCCCC5)CC4)cc13)-c1cc3c(c(=O)n1C2)COC(=O)[C@]3(O)CC", "note": "[irinotecan, Irinotecan hydrochloride]", "values": [
      {"measurement": "responsiveness to the drug: effect on tumors formed in the SCID mice", "value": "reduced or eliminated"}
    ]}
  ]
}
